Among the data in PubChem BioAssay AID2060495 (Molecular Pharmacology Branch, DTP, NCI, 2025) are IC50 and viability, T/C values, retold here.

Where “and” joins values, the source holds several entries; their conditions need not be identical. Equal values may be shown once.

The assay deals with 521955-158-R2-J5-PDC complex spheroid viability. In words: Anticancer human tumor 521955-158-R2-J5-PDC patient-derived pancreatic carcinoma cell line growth inhibition [GQUAD]. Particulars: for viability, T/C: stronger effect = lower value. The source says: DNA G-quadruplex Stabilizer Agents in Combinations in Complex Spheroids
A high-throughput screen of multi-cell type tumor spheroids was designed to identify active combinations of DNA G-quadruplex stabilizer agents and targeted small molecules. Complex spheroids include a stromal component modeled by human endothelial cells (HUVEC) and fibroblasts modeled by human mesenchymal stem cells (MSCs). The concentration ranges selected for each drug and investigational agent were based upon clinically achievable concentrations if the clinical Cmax of the agent was known.
Compounds. The drugs and investigational agents: pidnarulex (CX-5461; NSC782164), APTO-253 (NSC789042), BRACO-19 (NSC847499), peposertib (NSC802822), ceralasertib (NSC780249), elimusertib (NSC800525), camonsertib (NSC841442), AZD-1390 (NSC803789), olaparib (NSC753686), talazoparib (NSC767125), ART-558 (NSC835418), sotorasib (NSC818433), MRTX-1133 (NSC836407), SN-38 (NSC673596), topotecan (NSC609699), etoposide (NSC141540), doxorubicin (NSC123127), gemcitabine (NSC613327), 5-fluorouracil (NSC19893), paclitaxel (NSC125973), vemurafenib (NSC761431), panobinostat (NSC761190), R-306465 (JNJ-16241199; NSC773264), adavosertib (NSC754352), TP-3654 (NSC805149), carboplatin (NSC241240), KSQ-4279 (NSC840948), and staurosporine (NSC755774) were obtained from the National Cancer Institute (NCI) Developmental Therapeutics Program Chemical Repository (34). The FDA-approved anticancer drug set is available from the NCI Developmental Therapeutics Program. […] The stock solutions were prepared in dimethyl sulfoxide (DMSO, Sigma-Aldrich, St. Louis, MO, cat. D2650) at 800-fold the tested concentration and stored at -70 degrees C prior to their use. All drugs and investigational agents were tested over a range starting from a high concentration at or near the clinical Cmax and decreasing in half-log increments. If the clinical Cmax for an agent had not been determined, the highest concentration tested was 10 microM.
2.3 Cell Culture. All cells were maintained in an incubator at 37 degrees C and 5% CO2 with 95% humidity. The PDC lines were cultured according to standard operating procedures established by the NCI PDMR. All PDCs were thawed and cultured in Matrigel-coated flasks prepared with a working solution of 1X Ham's F-12 nutrient mix, without supplementation (Invitrogen, cat. 11765054), 100 U/mL penicillin-streptomycin (Invitrogen, cat. 15140122), and 2.5% Matrigel (Corning Inc., cat. 354248) for the first three passages. The 857933-349-R-J2-PDC line was cultured in 6C/Colon 1B media, which includes advanced DMEM/F-12 (Thermo Fisher Scientific, cat. 12634028), 10 mM HEPES (Thermo Fisher Scientific, cat. 15630080), 1X GlutaMAX supplement (Thermo Fisher Scientific, cat. 35050061), 0.1 mg/mL primocin (InvivoGen, cat. ant-pm-2), 10% defined fetal bovine serum, heat inactivated (HyClone Laboratories Inc., cat. SH30070.03HI), 50% L-WRN conditioned media (ATCC, cat. CRL-3276), 1.25 mM N-Acetyl-L-cysteine (Sigma-Aldrich, cat. A9165), 10 mM nicotinamide (Sigma-Aldrich, cat. N0636), 1X B-27 supplement (Thermo Fisher Scientific, cat. 17504044), 1X N-2 supplement (Thermo Fisher Scientific, cat. 17502048), 10 microM Y-27632 dihydrochloride (Tocris Bioscience, cat. 1254), and 50 ng/mL human EGF recombinant protein (Thermo Fisher Scientific, cat. PHG0311). The 485176-168-R4-J1-PDC line was cultured in Panc media, which includes all 6C/Colon 1B media components plus 100 ng/mL human FGF-10 (Thermo Fisher Scientific, cat. 100-26), 500 nM SB-431542 (Selleckchem, cat. S1067), and gastrin (Tocris, cat. 3006).
[…]
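Also: spheroids exposed to agents for one week before reading.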

Consider `C=CCn1c(=O)c2cnc(Nc3ccc(N4CCN(C)CC4)cc3)nc2n1-c1cccc(C(C)(C)O)n1` + CN(C)c1ccc(Nc2c3ccc(NC(=O)CCN4CCCC4)cc3nc3cc(NC(=O)CCN4CCCC4)ccc23)cc1, for which the half-maximal inhibitory concentration (IC50) (in general, the concentration at which inhibition is half-maximal) is, setting by setting: (curve of first compound, second compound 0.0316 µM) 189 nM; (curve of first compound, second compound 0.1 µM) 208 nM; (curve of first compound, second compound 0.316 µM) 188 nM; (curve of first compound, second compound 1 µM) 207 nM; (curve of first compound, second compound 3.16 µM) 201 nM; (curve of first compound, second compound 10 µM) 401 nM. Moreover, the viability, T/C (as a rule, the result in the treated group divided by that in the control group, in per cent) runs as follows: (second compound 0.0316 µM, first compound 0.0316 µM) 112%; (second compound 0.0316 µM, first compound 0.1 µM) 76.5%; (second compound 0.0316 µM, first compound 0.316 µM) 28.2%; (second compound 0.0316 µM, first compound 1 µM) 16.8%; (second compound 0.0316 µM, first compound 3.16 µM) 11.2%; (second compound 0.0316 µM, first compound 10 µM) 13.4%. Moreover, the viability, T/C is 107% (second compound 0.1 µM, first compound 0.0316 µM); 85.7% (second compound 0.1 µM, first compound 0.1 µM); 29.5% (second compound 0.1 µM, first compound 0.316 µM); 15.5% (second compound 0.1 µM, first compound 1 µM); 14.3% (second compound 0.1 µM, first compound 3.16 µM); 12.2% (second compound 0.1 µM, first compound 10 µM). The viability, T/C is 82.6% (second compound 0.316 µM, first compound 0.0316 µM); 80.7% (second compound 0.316 µM, first compound 0.1 µM); 24.8% (second compound 0.316 µM, first compound 0.316 µM); 11.6% (second compound 0.316 µM, first compound 1 µM); 14% (second compound 0.316 µM, first compound 3.16 µM); 15.2% (second compound 0.316 µM, first compound 10 µM). For the same molecule, the viability, T/C (second compound 1 µM, first compound 0.0316 µM) is 90.5%; the viability, T/C (second compound 1 µM, first compound 0.1 µM) is 85.2%; the viability, T/C (second compound 1 µM, first compound 0.316 µM) is 29.5%; the viability, T/C (second compound 1 µM, first compound 1 µM) is 15.9%; the viability, T/C (second compound 1 µM, first compound 3.16 µM) was 13.4%; the viability, T/C (second compound 1 µM, first compound 10 µM) was 16.2%. For the same molecule, the viability, T/C is 84.6% (second compound 3.16 µM, first compound 0.0316 µM); 74.4% (second compound 3.16 µM, first compound 0.1 µM); 33.7% (second compound 3.16 µM, first compound 0.316 µM); 23.3% (second compound 3.16 µM, first compound 1 µM); 18.6% (second compound 3.16 µM, first compound 3.16 µM); 13.5% (second compound 3.16 µM, first compound 10 µM). The viability, T/C is, setting by setting: (second compound 10 µM, first compound 0.0316 µM) 65.1%; (second compound 10 µM, first compound 0.1 µM) 67.6%; (second compound 10 µM, first compound 0.316 µM) 53.3%; (second compound 10 µM, first compound 1 µM) 31.6%; (second compound 10 µM, first compound 3.16 µM) 7.79%; (second compound 10 µM, first compound 10 µM) 1.53%.
As for `CC[C@@]1(O)C(=O)OCc2c1cc1n(c2=O)Cc2cc3c(CN(C)C)c(O)ccc3nc2-1`, the viability, T/C by setting is: (compound 0.000999 µM) 109% and 110% and 79.9%; (compound 0.00316 µM) 84.8% and 101% and 96.6%; (compound 0.00999 µM) 96.3% and 112% and 92.2%; (compound 0.0316 µM) 86.6% and 79.7% and 91.3%; (compound 0.0999 µM) 30.5% and 50.2% and 38%; (compound 0.316 µM) 8.07% and 27.5% and 13.2%. Further, the IC50 (curve of compound) was 66.9 nM and 93.2 nM and 76.6 nM.
For `CC1COCCN1c1cc(C2(S(C)(=N)=O)CC2)nc(-c2ccnc3[nH]ccc23)n1` (stereo not drawn), the viability, T/C is 109% and 97.3% and 99.7% (compound 0.0316 µM); 100% and 91% and 89.6% (compound 0.1 µM); 97.3% and 109% and 127% (compound 0.316 µM); 28% and 45.5% and 25.8% (compound 1 µM); 9.05% and 14.9% and 6.37% (compound 3.16 µM); 11.1% and 16.7% and 11.6% (compound 10 µM). In addition, the IC50 (curve of compound) was 693 nM and 909 nM and 705 nM.
For `C=CCn1c(=O)c2cnc(Nc3ccc(N4CCN(C)CC4)cc3)nc2n1-c1cccc(C(C)(C)O)n1`, the viability, T/C by setting is: (compound 0.0316 µM) 101% and 115% and 102%; (compound 0.1 µM) 70.8% and 67% and 66.1%; (compound 0.316 µM) 30.4% and 29.3% and 16%; (compound 1 µM) 17.9% and 15.7% and 7.78%; (compound 3.16 µM) 12.2% and 13.9% and 7.48%; (compound 10 µM) 16.8% and 14.4% and 6.61%. Further, where the note is “curve of compound”, the IC50 was 181 nM and 167 nM and 145 nM.
